The numbers were not newly measured in patent US5889008A, “Substituted 1-indolylpropyl-4-phenethylpiperazadine derivatives” (Merck Sharp & Dohme, Ltd., priority 1995, dated 1999), which cites them from elsewhere.

SMILES strings stand for the structures.

Data set [1] deals with human 5-HT1Dα and 5-HT1Dβ receptor subtypes. The settings on record: cf. WO-A-91/17174, Table 1.
For the next data set, the system named is humans. The conditions noted are these: therapeutic doses.

In the case of `CNS(=O)(=O)Cc1ccc2[nH]cc(CCN(C)C)c2c1` [sumatriptan], the “discrimination between the human 5-HT1Dα and 5-HT1Dβ receptor subtypes” value in data set [1] is “barely discriminates between the human 5-HT1Dα and 5-HT1Dβ receptor subtypes”. The adverse cardiovascular events entry in the data set on humans is “certain adverse cardiovascular events”.
